{"source": "paper PMC5218480", "about": "(PLoS ONE, 2017)", "system": "MV-4-11 cells", "assay": "Gene expression microarray analysis (Affymetrix PrimeView) and GSEA", "type": "cell-based, human", "parameters": "RFU PODN (11730768_x_at) / Fold change /veh PODN (11730768_x_at) / RFU LINC00158 (11744669_a_at) / Fold change /veh LINC00158 (11744669_a_at) / RFU DUSP10 (11751237_a_at) / Fold change /veh DUSP10 (11751237_a_at) / RFU ID3 (11757404_x_at) / Fold change /veh ID3 (11757404_x_at) / RFU PLEKHG5 (11737974_s_at) / Fold change /veh PLEKHG5 (11737974_s_at) / RFU LRRC4B (11730491_at) / Fold change /veh LRRC4B (11730491_at) / RFU GIMAP4 (11747438_a_at) / Fold change /veh GIMAP4 (11747438_a_at) / RFU KRT8 (11758183_x_at) / Fold change /veh KRT8 (11758183_x_at) / RFU CNN1 (11734310_a_at) / Fold change /veh CNN1 (11734310_a_at) / RFU VPS37D (11726825_at) / Fold change /veh VPS37D (11726825_at) / RFU C10orf10 (11716522_x_at) / Fold change /veh C10orf10 (11716522_x_at) / RFU KIR2DL2 /// KIR2DL4 /// KIR2DL5A /// KIR2DL5B /// KIR2DS1 /// KIR2DS2 /// KIR2DS3 /// KIR2DS4 /// KIR3DL3 /// KIR3DL3 /// KIR3DS1 (11738374_at) / Fold change /veh KIR2DL2 /// KIR2DL4 /// KIR2DL5A /// KIR2DL5B /// KIR2DS1 /// KIR2DS2 /// KIR2DS3 /// KIR2DS4 /// KIR3DL3 /// KIR3DL3 /// KIR3DS1 (11738374_at) / RFU C1QL1 (11718748_at) / Fold change /veh C1QL1 (11718748_at) / RFU TMPRSS4 (11747572_a_at) / Fold change /veh TMPRSS4 (11747572_a_at) / RFU HAMP (11756126_x_at) / Fold change /veh HAMP (11756126_x_at) / RFU RNFT2 (11725882_a_at) / Fold change /veh RNFT2 (11725882_a_at) / RFU NR4A2 (11747474_a_at) / Fold change /veh NR4A2 (11747474_a_at) / RFU ABCC12 (11746883_a_at) / Fold change /veh ABCC12 (11746883_a_at) / RFU TMEM136 (11760407_x_at) / Fold change /veh TMEM136 (11760407_x_at) / RFU CLDN22 /// WWC2 (11732394_at) / Fold change /veh CLDN22 /// WWC2 (11732394_at) / RFU HLA-DPB1 (11760878_x_at) / Fold change /veh HLA-DPB1 (11760878_x_at) / RFU SPINT1 (11716480_a_at) / Fold change /veh SPINT1 (11716480_a_at) / RFU GAP43 (11754022_s_at) / Fold change /veh GAP43 (11754022_s_at) / RFU A4GNT (11735810_at) / Fold change /veh A4GNT (11735810_at) / RFU PRB3 (11715151_x_at) / Fold change /veh PRB3 (11715151_x_at) / RFU TUBB4B (11761932_at) / Fold change /veh TUBB4B (11761932_at) / RFU CAPN14 (11732068_a_at) / Fold change /veh CAPN14 (11732068_a_at) / RFU TMCC2 (11721928_a_at) / Fold change /veh TMCC2 (11721928_a_at) / RFU IRGQ (11745062_a_at) / Fold change /veh IRGQ (11745062_a_at) / RFU FAM174B (11720279_a_at) / Fold change /veh FAM174B (11720279_a_at) / RFU TMPRSS4 (11748680_a_at) / Fold change /veh TMPRSS4 (11748680_a_at) / RFU FAM212B (11763350_a_at) / Fold change /veh FAM212B (11763350_a_at) / RFU PLEKHG5 (11743358_a_at) / Fold change /veh PLEKHG5 (11743358_a_at) / RFU ZSCAN30 (11745921_a_at) / Fold change /veh ZSCAN30 (11745921_a_at) / RFU CMKLR1 (11741424_a_at) / Fold change /veh CMKLR1 (11741424_a_at) / RFU LOC101060620 /// MAPK8IP1 (11723275_at) / Fold change /veh LOC101060620 /// MAPK8IP1 (11723275_at) / RFU SPTSSB (11747773_x_at) / Fold change /veh SPTSSB (11747773_x_at) / RFU PRSS12 (11739890_at) / Fold change /veh PRSS12 (11739890_at) / RFU BIN1 (11741810_x_at) / Fold change /veh BIN1 (11741810_x_at) / RFU WNT11 (11732464_a_at) / Fold change /veh WNT11 (11732464_a_at) / RFU C10orf10 (11716521_a_at) / Fold change /veh C10orf10 (11716521_a_at) / RFU C5orf56 (11738089_at) / Fold change /veh C5orf56 (11738089_at) / RFU CYB561 (11721691_x_at) / Fold change /veh CYB561 (11721691_x_at) / RFU ANKRD19P (11752326_a_at) / Fold change /veh ANKRD19P (11752326_a_at) / RFU OR2T12 /// OR2T33 /// OR2T8 (11738714_s_at) / Fold change /veh OR2T12 /// OR2T33 /// OR2T8 (11738714_s_at) / RFU VCAN (11748164_a_at) / Fold change /veh VCAN (11748164_a_at) / RFU JSRP1 (11732532_at) / Fold change /veh JSRP1 (11732532_at) / RFU KRTAP10-11 (11738290_x_at) / Fold change /veh KRTAP10-11 (11738290_x_at) / RFU MYO3A (11730013_a_at) / Fold change /veh MYO3A (11730013_a_at) / RFU EBF3 (11725865_a_at) / Fold change /veh EBF3 (11725865_a_at) / RFU CAMK2N1 (11719241_x_at) / Fold change /veh CAMK2N1 (11719241_x_at) / RFU C5orf56 (11738088_a_at) / Fold change /veh C5orf56 (11738088_a_at) / RFU OLFML3 (11715873_a_at) / Fold change /veh OLFML3 (11715873_a_at) / RFU LOC100653217 /// NTM (11731650_a_at) / Fold change /veh LOC100653217 /// NTM (11731650_a_at) / RFU MAPK11 (11762145_a_at) / Fold change /veh MAPK11 (11762145_a_at) / RFU FIZ1 (11724087_x_at) / Fold change /veh FIZ1 (11724087_x_at) / RFU OASL (11726364_x_at) / Fold change /veh OASL (11726364_x_at) / RFU SOX15 (11748057_x_at) / Fold change /veh SOX15 (11748057_x_at) / RFU CD79A (11719716_a_at) / Fold change /veh CD79A (11719716_a_at) / RFU HIST1H1D (11736915_at) / Fold change /veh HIST1H1D (11736915_at) / RFU CASKIN2 (11723855_a_at) / Fold change /veh CASKIN2 (11723855_a_at) / RFU LOC730098 (11760151_x_at) / Fold change /veh LOC730098 (11760151_x_at) / RFU OR4N2 (11742367_at) / Fold change /veh OR4N2 (11742367_at) / RFU PRRT2 (11749266_a_at) / Fold change /veh PRRT2 (11749266_a_at) / RFU SNX32 (11753110_a_at) / Fold change /veh SNX32 (11753110_a_at) / RFU CDHR5 (11726645_a_at) / Fold change /veh CDHR5 (11726645_a_at) / RFU RCAN1 (11760418_a_at) / Fold change /veh RCAN1 (11760418_a_at) / RFU FAM167A (11723789_a_at) / Fold change /veh FAM167A (11723789_a_at) / RFU FAM26E (11764081_at) / Fold change /veh FAM26E (11764081_at) / RFU ISYNA1 (11749810_s_at) / Fold change /veh ISYNA1 (11749810_s_at) / RFU ACY1 (11761880_at) / Fold change /veh ACY1 (11761880_at) / RFU 11764098_at / Fold change /veh 11764098_at / RFU SAMD14 (11745864_x_at) / Fold change /veh SAMD14 (11745864_x_at) / RFU NPB (11741838_a_at) / Fold change /veh NPB (11741838_a_at) / RFU TMPRSS6 (11731388_a_at) / Fold change /veh TMPRSS6 (11731388_a_at) / RFU KRTAP10-2 (11738614_at) / Fold change /veh KRTAP10-2 (11738614_at) / RFU ARHGAP8 /// PRR5-ARHGAP8 (11727945_x_at) / Fold change /veh ARHGAP8 /// PRR5-ARHGAP8 (11727945_x_at) / RFU KRTAP5-7 /// NADSYN1 (11734609_at) / Fold change /veh KRTAP5-7 /// NADSYN1 (11734609_at) / RFU RASL12 (11751679_a_at) / Fold change /veh RASL12 (11751679_a_at) / RFU CDKN2B (11736163_a_at) / Fold change /veh CDKN2B (11736163_a_at) / RFU PRF1 (11729649_at) / Fold change /veh PRF1 (11729649_at) / RFU, ZNF638 /// ZNF638-IT1 / Fold change vs veh, ZNF638 /// ZNF638-IT1 / RFU, PANK3 / Fold change vs veh, PANK3 / RFU, SH3YL1 / Fold change vs veh, SH3YL1 / RFU, ZEB2 / Fold change vs veh, ZEB2 / RFU, NRIP1 / Fold change vs veh, NRIP1 / RFU, PTTG1IP / Fold change vs veh, PTTG1IP / RFU, CAPN2 / Fold change vs veh, CAPN2 / RFU, MED14 / Fold change vs veh, MED14 / RFU, SNORA58 / Fold change vs veh, SNORA58 / RFU, C1orf63 / Fold change vs veh, C1orf63 / RFU, LRRFIP1 / Fold change vs veh, LRRFIP1 / RFU, NDUFAF7 / Fold change vs veh, NDUFAF7 / RFU, SLC12A2 / Fold change vs veh, SLC12A2 / RFU, IBTK / Fold change vs veh, IBTK / RFU, ESF1 / Fold change vs veh, ESF1 / Fold change vs veh, TMEM50B / RFU, TAOK1 / Fold change vs veh, TAOK1 / RFU, ACBD3 / Fold change vs veh, ACBD3 / RFU, TMA16 / Fold change vs veh, TMA16 / RFU, RWDD3 / Fold change vs veh, RWDD3 / RFU, BCAT1 / Fold change vs veh, BCAT1 / RFU, EDEM3 / Fold change vs veh, EDEM3 / RFU, TMEM33 / Fold change vs veh, TMEM33 / RFU, WDR75 / Fold change vs veh, WDR75 / RFU, AHCTF1 / Fold change vs veh, AHCTF1 / RFU, TFRC / Fold change vs veh, TFRC / RFU, ZDHHC17 / Fold change vs veh, ZDHHC17 / RFU, NOM1 / Fold change vs veh, NOM1 / RFU, ARL8B / Fold change vs veh, ARL8B / RFU, ZBTB11 / Fold change vs veh, ZBTB11 / RFU, TAMM41 / Fold change vs veh, TAMM41 / RFU, KIAA1704 /// LOC100996395 / Fold change vs veh, KIAA1704 /// LOC100996395 / RFU, ING1 / Fold change vs veh, ING1 / RFU, TRMT61B / Fold change vs veh, TRMT61B / RFU, FUBP3 / Fold change vs veh, FUBP3 / RFU, TP53 / Fold change vs veh, TP53 / RFU, TNKS2 / Fold change vs veh, TNKS2 / RFU, ZFP14 / Fold change vs veh, ZFP14 / RFU, ACTR2 / Fold change vs veh, ACTR2 / RFU, PPP3R1 / Fold change vs veh, PPP3R1 / RFU, PIK3R1 / Fold change vs veh, PIK3R1 / RFU, HNRNPA1 / Fold change vs veh, HNRNPA1 / RFU, RNF170 / Fold change vs veh, RNF170 / RFU, ZNF28 / Fold change vs veh, ZNF28 / RFU, RNGTT / Fold change vs veh, RNGTT / RFU, OGT / Fold change vs veh, OGT / RFU, BRD1 / Fold change vs veh, BRD1 / RFU, MARS / Fold change vs veh, MARS / RFU, ZNF655 / Fold change vs veh, ZNF655 / RFU, FAHD1 / Fold change vs veh, FAHD1 / RFU, BDP1 / Fold change vs veh, BDP1 / RFU, LRRCC1 / Fold change vs veh, LRRCC1 / RFU, ARID1A / Fold change vs veh, ARID1A / RFU, ZNF146 / Fold change vs veh, ZNF146 / RFU, ZNF330 / Fold change vs veh, ZNF330 / RFU, GPN3 / Fold change vs veh, GPN3 / RFU, C9orf123 / Fold change vs veh, C9orf123 / RFU, N4BP2L2 / Fold change vs veh, N4BP2L2 / RFU, ARFIP1 / Fold change vs veh, ARFIP1 / RFU, FAM179B / Fold change vs veh, FAM179B / RFU, BCL10 / Fold change vs veh, BCL10 / RFU, UHRF1BP1L / Fold change vs veh, UHRF1BP1L / RFU, BET1 / Fold change vs veh, BET1 / RFU, CNOT2 / Fold change vs veh, CNOT2 / RFU, ZNF268 / Fold change vs veh, ZNF268 / Fold change vs veh, ZNF507 / RFU, DGCR2 / Fold change vs veh, DGCR2 / RFU, WDSUB1 / Fold change vs veh, WDSUB1 / Fold change vs veh, HSP90B1 /// MIR3652 / RFU, ADSS / Fold change vs veh, ADSS / RFU, GK / Fold change vs veh, GK / RFU, ZNF148 / Fold change vs veh, ZNF148 / RFU, TAF9 / Fold change vs veh, TAF9 / RFU, SLC1A5 / Fold change vs veh, SLC1A5 / RFU, SLMO2 / Fold change vs veh, SLMO2 / RFU, ABCC4 / Fold change vs veh, ABCC4 / RFU, LOC101060439 /// RAP1B / Fold change vs veh, LOC101060439 /// RAP1B / RFU, RFX7 / Fold change vs veh, RFX7 / RFU, GTPBP10 / Fold change vs veh, GTPBP10 / RFU, CNEP1R1 / Fold change vs veh, CNEP1R1 / RFU, BIVM-ERCC5 /// ERCC5 / Fold change vs veh, BIVM-ERCC5 /// ERCC5 / RFU, ILF3 / Fold change vs veh, ILF3 / RFU 11762660_at / Fold change /veh 11762660_at / RFU VCAN (11757783_s_at) / Fold change /veh VCAN (11757783_s_at) / RFU DDX43 (11728927_at) / Fold change /veh DDX43 (11728927_at) / RFU KRT8 (11758188_x_at) / Fold change /veh KRT8 (11758188_x_at) / RFU NKD1 (11759106_at) / Fold change /veh NKD1 (11759106_at) / RFU SRD5A1 (11742802_a_at) / Fold change /veh SRD5A1 (11742802_a_at) / RFU TPSAB1 /// TPSB2 (11721975_s_at) / Fold change /veh TPSAB1 /// TPSB2 (11721975_s_at) / RFU GSTM3 (11746129_a_at) / Fold change /veh GSTM3 (11746129_a_at) / RFU IL23R (11737362_x_at) / Fold change /veh IL23R (11737362_x_at) / RFU TMEM51 (11727254_a_at) / Fold change /veh TMEM51 (11727254_a_at) / RFU PIWIL2 (11732686_x_at) / Fold change /veh PIWIL2 (11732686_x_at) / RFU ORM1 (11744905_x_at) / Fold change /veh ORM1 (11744905_x_at) / RFU CCDC152 (11743942_at) / Fold change /veh CCDC152 (11743942_at) / RFU ECM1 (11717891_a_at) / Fold change /veh ECM1 (11717891_a_at) / RFU IL23R (11748794_a_at) / Fold change /veh IL23R (11748794_a_at) / RFU TNFAIP8L3 (11732012_x_at) / Fold change /veh TNFAIP8L3 (11732012_x_at) / RFU MBOAT4 (11741988_at) / Fold change /veh MBOAT4 (11741988_at) / RFU 11764193_at / Fold change /veh 11764193_at / RFU TMEM53 (11763286_at) / Fold change /veh TMEM53 (11763286_at) / RFU MAGEB2 (11727129_at) / Fold change /veh MAGEB2 (11727129_at) / RFU TMEM200A (11744735_a_at) / Fold change /veh TMEM200A (11744735_a_at) / RFU CCDC152 (11751479_a_at) / Fold change /veh CCDC152 (11751479_a_at) / RFU FAM211A (11726209_a_at) / Fold change /veh FAM211A (11726209_a_at) / RFU RGS16 (11746705_a_at) / Fold change /veh RGS16 (11746705_a_at) / RFU VCAN (11755009_s_at) / Fold change /veh VCAN (11755009_s_at) / RFU RHOB (11743442_s_at) / Fold change /veh RHOB (11743442_s_at) / RFU RGS16 (11720943_a_at) / Fold change /veh RGS16 (11720943_a_at) / RFU RGS16 (11720944_at) / Fold change /veh RGS16 (11720944_at) / RFU, VPS4B / Fold change vs veh, VPS4B / RFU, CREB1 / Fold change vs veh, CREB1 / RFU, DNAJC13 / Fold change vs veh, DNAJC13 / RFU, GNAQ / Fold change vs veh, GNAQ / RFU, CDK5R1 / Fold change vs veh, CDK5R1 / RFU, ZRANB3 / Fold change vs veh, ZRANB3 / RFU, CUL4A / Fold change vs veh, CUL4A / RFU, CCNY / Fold change vs veh, CCNY / RFU, UFL1 / Fold change vs veh, UFL1 / RFU, COG3 / Fold change vs veh, COG3 / RFU, DIAPH2 / Fold change vs veh, DIAPH2 / RFU, SKA2 / Fold change vs veh, SKA2 / RFU, AFF3 / Fold change vs veh, AFF3 / RFU, LMF1 / Fold change vs veh, LMF1 / RFU, IPO11 / Fold change vs veh, IPO11 / RFU, DFFB / Fold change vs veh, DFFB / RFU, FOXP1 / Fold change vs veh, FOXP1 / RFU, CARD8 / Fold change vs veh, CARD8 / RFU, STRN3 / Fold change vs veh, STRN3 / RFU, ADK / Fold change vs veh, ADK / RFU, RASSF2 / Fold change vs veh, RASSF2 / RFU, WIPF1 / Fold change vs veh, WIPF1 / RFU, LARP1B / Fold change vs veh, LARP1B / RFU, RASA1 / Fold change vs veh, RASA1 / RFU, RB1 / Fold change vs veh, RB1 / RFU, PPFIA1 / Fold change vs veh, PPFIA1 / RFU, MAT2A / Fold change vs veh, MAT2A / RFU, CCT5 / Fold change vs veh, CCT5 / RFU, WDR92 / Fold change vs veh, WDR92 / RFU, CUX1 / Fold change vs veh, CUX1 / RFU, TTC7A / Fold change vs veh, TTC7A / RFU, TMEM135 / Fold change vs veh, TMEM135 / RFU, DEPTOR / Fold change vs veh, DEPTOR / RFU, CPM / Fold change vs veh, CPM / RFU, DNAJB6 / Fold change vs veh, DNAJB6 / RFU, CACNA2D3 / Fold change vs veh, CACNA2D3 / RFU, DTX4 / Fold change vs veh, DTX4 / RFU, TFCP2 / Fold change vs veh, TFCP2 / RFU, GMCL1 /// GMCL1P1 / Fold change vs veh, GMCL1 /// GMCL1P1 / RFU, AEBP2 / Fold change vs veh, AEBP2 / RFU, SNHG1 /// SNORD22 /// SNORD25 /// SNORD26 /// SNORD27 /// SNORD28 /// SNORD29 /// SNORD31 / Fold change vs veh, SNHG1 /// SNORD22 /// SNORD25 /// SNORD26 /// SNORD27 /// SNORD28 /// SNORD29 /// SNORD31 / Fold change (Aza/veh), C12orf56 (ProbeSet 11735607_a_at) / Fold change (ACY-1035/veh), C12orf56 (ProbeSet 11735607_a_at) / Fold change (Aza/veh), FGFR1OP (ProbeSet 11751329_s_at) / Fold change (ACY-1035/veh), FGFR1OP (ProbeSet 11751329_s_at) / Fold change (Aza/veh), VPS36 (ProbeSet 11739960_a_at) / Fold change (ACY-1035/veh), VPS36 (ProbeSet 11739960_a_at) / RFU SYPL1 (11715823_x_at) / Fold change /veh SYPL1 (11715823_x_at) / RFU IGFBP7 (11715501_s_at) / Fold change /veh IGFBP7 (11715501_s_at) / RFU REEP3 (11722064_at) / Fold change /veh REEP3 (11722064_at) / RFU IGLL1 (11728026_x_at) / Fold change /veh IGLL1 (11728026_x_at): dose or concentration left out as unconfirmed", "details": "ProbeSet 11755070_a_at; LIST D", "data": [{"smiles": "Nc1ncn([C@@H]2O[C@H](CO)[C@@H](O)[C@H]2O)c(=O)n1", "note": "[azacitidine]", "values": [{"measurement": "Fold change vs veh, CARD8", "value": 0.80}]}]}
